Several values for one entry are separate records, joined by “and”; a condition that tells them apart may be missing. Equal values may be shown once. Read-outs that look alike come from different tables or passages of the source.
What was measured:
Folsomia candida [1] = conditions: 28 days, LUFA 2.2 soil
Description: Tests were performed in 100 ml glass jars, containing c. 30 g moist soil, using five replicate test jars for each exposure concentration. Each jar received ten 10–12 day old animals from age-synchronized cultures, after checking their health under a binocular microscope. The animals were fed with a few grains of dry baker’s yeast (Instant yeast from Algist Bruggeman N.V, Ghent, Belgium) weekly, in small amounts to avoid fungal growth. All incubations took place at 20 ± 2 °C at 75% Relative Humidity and a photoperiod of 16:8 dark: light hours. Test jars were weighed at the start, so that water loss could be monitored on a weekly basis and replenished with deionized water if needed. After exposure, all animals were extracted by flotation and pictures were taken to enable counting the number of surviving adults and juveniles produced using the software package ImageJ with a Cell Counter extension.
If no proper fit was obtained, LC50 values were calculated using the trimmed Spearman-Karber method (Hamilton et al. [1977]/78). No observed effect concentrations (NOEC) were determined applying a one-way ANOVA followed by a one-sided Dunnett’s post hoc test at a significance level of p < 0.05. All statistical analysis, except for the Trimmed Spearman Karber method, were run in SPSS 23.

Folsomia candida [2] = conditions: cited from earlier work
Folsomia candida [3] = test: Multigeneration toxicity test (survival and reproduction) with springtails in spiked LUFA 2.2 soil; format: in vivo; conditions: for EC10 / EC50: number of juveniles
Description: F. candida were taken from cultures at the Department of Ecological Science at the Vrije Universiteit in Amsterdam. To obtain age-synchronized animals, adults from the culture were separated in boxes with a layer of plaster of Paris over a period of 2–3 days to lay eggs, after which they were removed. After removal of the adults, the eggs were incubated under a 12 h light/12 h dark regime at 20 °C and 75% relative humidity, where they hatched and grew. Juveniles of 10–12 days old were used for testing.
All tests were performed in the natural standard LUFA 2.2 (Lufa Speyer, Germany), a loamy sand with 1.59 ± 0.13% organic carbon, pH in 0.01 M CaCl2 of 5.4 ± 0.2, and water holding capacity (WHC) of 43.5 ± 2.8% of its dry weight.
Pure imidacloprid and thiacloprid (purity 98%) were kindly provided by Bayer CropScience, Monheim, Germany. Test concentrations of imidacloprid and thiacloprid were based on the results of earlier tests. Stock solution of both compounds in water were prepared, to spike the chemicals into the soil and at the same time bringing moisture content to the desired level of 50% of the WHC. To ensure complete thiacloprid dissolution, a small amount of acetone was added to the stock solution. This stock solution was used to spike soil with the highest test concentration and further diluted for spiking soil with the lower concentrations tested. Considering the low amount of acetone needed to make thiacloprid completely dissolve, no attempts were made to correct for that by adding acetone to the lower concentrations and control in the multigeneration test. All soils were thoroughly mixed to achieve a homogenous distribution of the test chemicals in the test soil.
Multigeneration tests started with a control, […] imidacloprid (0, 0.001, 0.003, 0.01, 0.03, 0.1, 0.3, 1.0 mg/kg dry soil) and 9 thiacloprid concentrations (0, 0.0015, 0.0045, 0.014, 0.041, 0.11, 0.31, 1.1, 3.3, 10.0 mg/kg dry soil). Batches of soil sufficient to perform three toxicity tests were prepared. After filling test jars for the parent generation exposure, the remaining spiked soil was stored in glass jars in a climate room at 20 °C for subsequent exposure of the next two generations. Moisture content of the spiked soil was checked regularly by weighing the jars, and replenished by adding deionized water if needed.
After 28 days (35 days for the second generation), the juveniles from the same exposure concentration were pooled in the same container with a moist plaster of Paris bottom and incubated overnight before being transferred to the next cycle of exposure. This experiment spanned a total of three continuous generations (referred to as F0, F1, and F2).

[4] = Chemical analysis of concentrations in test soil (LC-MS) and degradation half-life (DT50); format: physicochemical; conditions: for concentration, % of the nominal concentration: after 63 days
Description: Soil samples for chemical analysis of imidacloprid and thiacloprid in the test soil were taken at the start of the exposure of each new generation.
The analytical method to determine actual imidacloprid and thiacloprid concentrations in the test soils followed the principles of the QuEChERS extraction method modified from Anastasiades et al. ([2003]) and Payá et al. ([2007]). Briefly, the procedure used was as follows: approx. 1 g moist soil was taken for low concentration treatments (<1 mg/kg), and 50 µL internal standard (Imidacloprid-d4 and Thiacloprid-d4, 250 µg/L) was added. The sample was shaken for 20 min at 250 rpm with 2 mL methanol and centrifuged for 3 min at 1500 rpm. The methanol phase was passed through a granular Na2SO4 column, evaporated till dryness and the residue taken up in 3 mL acetonitrile. For high concentration samples (>1 mg/kg), the soil was first shaken with methanol and centrifuged. Subsequently an aliquot of 100 µL was taken and together with 50 µL internal standard (Imidacloprid-d4 and Thiacloprid-d4, 250 µg/L) added to 1 mL methanol, passed through a granular Na2SO4 column, evaporated to dryness and taken up in 3 mL acetonitrile. For clean-up, the acetonitrile extract was added to a tube filled with Supel QuE (C18 150 mg, PSA 150 mg, MgSO4 900 mg, Sigma Aldrich), shaken by hand for 2 min and centrifuged for 3 min at 3000 rpm. The supernatant was evaporated till dryness under gentle nitrogen stream and the residue taken up in 200 µL of a water-methanol (9/1) mixture.
Extracts were analyzed using LC-MS and quantified by isotope dilution (imidacloprid-d4 and thiacloprid-d4). The neonicotinoids were separated on a 100 × 2.1 mm, 2.6 µm Kinetex XB-C18 column (Phenomenex), applying a gradient of 5 mM ammonium formate pH 4 buffer and methanol, at a flow rate of 0.3 mL/min. The LC system (Agilent 1200 series) was coupled to a 6410 triple quadrupole MS (Agilent) using electrospray ionization (ESI) with data acquisition in positive ion mode. The transitions for imidacloprid were 256.1 > 175/209 (quantifier/qualifier) and for imidacloprid-d4 260 > 179. For thiacloprid the transitions were253.1 > 126/90 (quantifier/qualifier) with 257 > 126 for thiacloprid-d4.
Using data on the imidacloprid and thiacloprid concentrations measured at different times after spiking the soil in the multigeneration test, half-life (DT50) values were estimated assuming first order degradation kinetics. The equation C = C0 * e^−k*t was fitted to the data, with C = concentration at time t in days, C0 is concentration at t = 0 and k = degradation rate constant (day^−1). DT50 was derived as ln(2) / k.

[5] = cited from earlier work
[6] = number of juveniles, with 95% confidence interval
[7] = F0 generation, 28 days, LUFA 2.2 soil, nominal concentrations
[8] = F1 and F2 generations, 3.3 mg/kg dry soil
[9] = F1 generation, 35 days, soil spiked at start of F0, nominal concentrations
[10] = F2 generation, 28 days, soil spiked at start of F0, nominal concentrations
[11] = F2 generation, 28 days, soil spiked at start of F0, nominal concentrations, listed as thiacloprid
[12] = 28-day exposure, Lufa 2.2, ~3.0% OM, pure, ref De Lima e Silva et al. (submitted)

## OB(O)O [Boric acid, boric acid]
Folsomia candida [1]
  NOEC: 20 mg/kg dry soil
Folsomia candida [1]; [6]
  EC10: 29 (25–33) mg/kg dry soil
  EC50: 51 (47–54) mg/kg dry soil
Folsomia candida [2]; OECD artificial soil, value mentioned in the test guideline, ref OECD (2009)
  EC50: 100 mg/kg dry soil

## N#C/N=C1\SCCN1Cc1ccc(Cl)nc1 [Thiacloprid, thiacloprid]
Folsomia candida [3]; F0 generation, 3.3 mg/kg dry soil
  effect on reproduction: significantly reduced
Folsomia candida [3]; [7]
  NOEC: 0.11 mg/kg dry soil
  EC10: 0.23 mg/kg dry soil
  EC50: 1.5 mg/kg dry soil
Folsomia candida [3]; F0 generation, 28 days, adult survival, LUFA 2.2 soil, nominal concentrations
  LC50: 9.0 mg/kg dry soil
Folsomia candida [3]; F0 generation, highest concentration tested 10 mg/kg dry soil
  juveniles produced, on average: 3 per jar
Folsomia candida [3]; [8]
  effects on juvenile numbers: no effects
  springtail reproduction affected: less than 50%
Folsomia candida [3]; [9]
  EC50: > 3.33 mg/kg dry soil and > 3.3 mg/kg dry soil
  LC50: > 3.33 mg/kg dry soil and > 3.3 mg/kg dry soil
  NOEC: ≥ 3.3 mg/kg dry soil
Folsomia candida [3]; [10]
  EC10: >3.3 mg/kg dry soil
  EC50: >3.3 mg/kg dry soil
  LC50: >3.3 mg/kg dry soil
Folsomia candida [3]; [11]
  EC50: > 3.33 mg/kg dry soil and > 3.3 mg/kg dry soil
  LC50: > 3.33 mg/kg dry soil and > 3.3 mg/kg dry soil
  NOEC: 1.1 mg/kg dry soil
Folsomia candida [3]; range over the three generations, Lufa 2.2, pure compound, this study
  LC50, range over generations: >3.33-9.0 mg/kg dry soil
[4]; LUFA 2.2 soil (spiked natural loamy sand), pH 5.4, LUFA 2.2 soil, 20 °C, first order kinetics, read-out: DT50 (half-life) for degradation in test soil
  half-life: 240 to 288 h
[4]; LUFA 2.2 soil, after 28 days, 1.1 and 3.3 mg/kg dry soil
  concentration, % of nominal: 91.2–101% and 90–100%
[4]; LUFA 2.2 soil, after 63 days of incubation, all concentrations
  concentration, % of the nominal values: 7.6–22.0%
[4]; LUFA 2.2 soil, 0.0137 mg/kg
  concentration, % of the nominal concentration: 22.0%
[4]; LUFA 2.2 soil, 0.113 mg/kg
  concentration, % of the nominal concentration: 19.8%
[4]; T=28, nominal 1.11, mean ± SD (n=3)
  concentration measured in soil: 1.1±0.35 mg/kg dry soil
[4]; T=28, nominal 3.33, mean ± SD (n=3)
  concentration measured in soil: 3.0±0.42 mg/kg dry soil
[4]; T=28, nominal 10, mean ± SD (n=3)
  concentration measured in soil: 5.7±0.27 mg/kg dry soil
[4]; T=63 d, nominal 0.014, mean ± SD (n=3)
  concentration measured in soil: 0.003±0.0002 mg/kg dry soil
[4]; T=63 d, nominal 0.113, mean ± SD (n=3)
  concentration measured in soil: 0.022±0.00044 mg/kg dry soil
[4]; T=63 d, nominal 1.11, mean ± SD (n=3)
  concentration measured in soil: 0.12±0.0054 mg/kg dry soil
[4]; T=63 d, nominal 3.33, mean ± SD (n=3)
  concentration measured in soil: 0.26±0.0038 mg/kg dry soil
[4]; T=63 d, nominal 10, mean ± SD (n=3)
  concentration measured in soil: 0.76±0.015 mg/kg dry soil
Folsomia candida [2]; [12]
  EC50: 1.7-2.4 mg/kg dry soil
  LC50: 4.3-4.9 mg/kg dry soil
[5]; field, ref European Commission (2004)
  field-based half-lives: 9 to 27 days
[5]; laboratory tests, ref Goulson (2013), Bonmatin et al. (2015)
  half-life in soil: 81.6 to 1780 h
[5]; ref Goulson (2013), Bonmatin et al. (2015)
  factor less persistent in soil than imidacloprid: 10

Source: publication PMC5397431, “Multigeneration toxicity of imidacloprid and thiacloprid to Folsomia candida” (Ecotoxicology (London, England), 2017)
